The target of one test is Urease (Canavalia ensiformis, UniProt P07374). Put plainly: Inhibition of jack bean urease assessed as reduction in ammonia production using urea as substrate incubated for 15 mins by indophenol method.
In test [1] the target is Urease (Canavalia ensiformis) (UniProt P07374). Put plainly: Inhibition of jack bean urease assessed as reduction in ammonia production at 0.5 mM using urea as substrate incubated for 15 mins by indophenol method.
Urease (Canavalia ensiformis), sequence (P07374 whole entry, looked up): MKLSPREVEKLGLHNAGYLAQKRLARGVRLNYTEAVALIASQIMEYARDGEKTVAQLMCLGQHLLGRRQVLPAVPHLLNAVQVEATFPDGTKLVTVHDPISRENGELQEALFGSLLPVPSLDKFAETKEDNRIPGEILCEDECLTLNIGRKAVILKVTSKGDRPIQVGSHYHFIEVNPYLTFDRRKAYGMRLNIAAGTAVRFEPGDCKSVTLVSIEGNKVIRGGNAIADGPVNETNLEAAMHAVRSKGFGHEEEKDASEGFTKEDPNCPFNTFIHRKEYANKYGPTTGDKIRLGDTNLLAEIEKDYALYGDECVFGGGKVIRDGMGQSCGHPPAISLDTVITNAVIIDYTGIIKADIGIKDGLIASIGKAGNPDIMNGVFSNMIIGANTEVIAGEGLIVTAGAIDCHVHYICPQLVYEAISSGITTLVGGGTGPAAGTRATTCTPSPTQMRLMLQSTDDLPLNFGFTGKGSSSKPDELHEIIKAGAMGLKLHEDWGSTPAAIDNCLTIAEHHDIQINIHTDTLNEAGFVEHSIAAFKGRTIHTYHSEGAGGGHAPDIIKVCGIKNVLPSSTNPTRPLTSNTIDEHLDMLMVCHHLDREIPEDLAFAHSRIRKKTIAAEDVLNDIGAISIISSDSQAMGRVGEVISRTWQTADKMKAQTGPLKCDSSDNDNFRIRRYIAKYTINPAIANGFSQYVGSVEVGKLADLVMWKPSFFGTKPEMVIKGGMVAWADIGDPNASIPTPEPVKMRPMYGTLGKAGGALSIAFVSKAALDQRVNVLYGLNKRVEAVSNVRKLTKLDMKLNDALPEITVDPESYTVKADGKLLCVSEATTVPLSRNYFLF

Urease, sequence (P07374 whole entry): as the sequence (P07374 whole entry, looked up) above

On to `CCCCCCCCn1c2ccc(C(C)=O)cc2c2cc(C(=O)/C=C/c3ccc(OC)cc3)ccc21`, for which the IC50 (usually the concentration that gives 50% inhibition) at Urease is 6.88 µM. Further, in test [1], the inhibition (in general, the relative decrease from the control value, in per cent) is 98.5%.
The matching figures for `CCCCCCCCn1c2ccc(C(C)=O)cc2c2cc(C(=O)/C=C/c3ccc(Cl)cc3)ccc21`: 24.7 µM and 95.1%.
The matching figures for `CCCCCCCCn1c2ccc(C(C)=O)cc2c2cc(C(=O)/C=C/c3cc(OC)c(OC)c(OC)c3)ccc21`: 150 µM and 74.5%.
With `CCCCCCCCn1c2ccc(C(C)=O)cc2c2cc(C(=O)/C=C/c3cccc(OC)c3)ccc21`, the inhibition in test [1] was 7.9%.
Same read-out and setting: under `CCCCCCCCn1c2ccc(C(C)=O)cc2c2cc(C(=O)/C=C/c3ccc(Br)cc3)ccc21` stands 24.9%.
`CCCCCCCCn1c2ccc(C(C)=O)cc2c2cc(C(=O)/C=C/c3cccc([N+](=O)[O-])c3)ccc21`: the IC50 on Urease was determined as 14.2 µM. Further, the inhibition in test [1] was found to be 94.4%.
The matching figures for `CCCCCCCCn1c2ccc(C(C)=O)cc2c2cc(C(=O)/C=C/c3ccc(N(C)C)cc3)ccc21`: 149 µM and 22.6%.
Regarding `CCCCCCCCn1c2ccc(C(C)=O)cc2c2cc(C(=O)/C=C/c3cccc(Br)c3)ccc21`, the inhibition in test [1] was 10.9%.
On to `CCCCCCCCn1c2ccc(C(C)=O)cc2c2cc(C(=O)/C=C/c3ccccc3Br)ccc21`, for which, at Urease, the 50% inhibitory concentration (IC50) was 8.93 µM. Besides, the inhibition in test [1] was 94.8%.
For the compound `CCCCCCCCn1c2ccc(C(C)=O)cc2c2cc(C(=O)/C=C/c3ccc([N+](=O)[O-])cc3)ccc21`, the inhibition in test [1] came out at 29.3%.
The same measure, in the same setting: under `CCCCCCCCn1c2ccc(C(C)=O)cc2c2cc(C(=O)/C=C/c3ccccc3[N+](=O)[O-])ccc21` stands 18.6%; under `CCCCCCCCn1c2ccc(C(C)=O)cc2c2cc(C(=O)/C=C/c3ccccc3)ccc21`, 19.3%.
Consider `CCCCCCCCn1c2ccc(C(C)=O)cc2c2cc(C(=O)/C=C/c3ccco3)ccc21`, for which the IC50 at Urease was found to be 24.8 µM. For the same compound, the inhibition in test [1] is 78.7%.
As to `CCCCCCCCn1c2ccc(C(C)=O)cc2c2cc(C(=O)/C=C/c3ccccc3Cl)ccc21`, the inhibition in test [1] turned out to be 24.5%.

The record behind these values is ChEMBL document CHEMBL4665672, “Developing new hybrid scaffold for urease inhibition based on carbazole-chalcone conjugates: Synthesis, assessment of therapeutic potential and computational docking analysis” (Bioorg Med Chem, 2019).
